Data as given in patent US10456451B2, “Protease-resistant mutants of stromal cell derived factor-1 in the repair of tissue damage” (Mesoblast International Sàrl, priority 2010, dated 2019).
Several values for one entry are separate records, joined by “and”; a condition that tells them apart may be missing. Identical values can stand only once. * marks the point of attachment. MCA = fluorescent 7-methoxycoumarin-3-carboxylic acid residue, COc1ccc2cc(C(=O)*)c(=O)oc2c1; Dpn = quencher lysine-dinitrophenol residue

What was measured:
[1] = test system: Jurkat T-lymphocytic cells; test: Jurkat T-lymphocyte migration (chemotaxis) assay; type: cell-based; conditions: for Jurkat Chemotaxis EC50 / EC50: Jurkat cells, 3 hours migration; for activity in Jurkat cell migration assay / activity of C-terminal variant relative to SDF-1 and SSDF-1: result in words; for activity of C-terminal variant relative to SDF-1 and SSDF-1: Jurkat migration, CXCR4 cAMP and CXCR β-arrestin assays
Experimental: Jurkat cells were labeled with Calcein-AM (1 μM) for 60 minutes at 37° C., washed twice and resuspended in RPMI without phenol red to a final density of 4,000,000 cells/ml. […] Cells were allowed to migrate for 3 hours, and cells in lower wells were washed once with PBS. Fluorescence in lower wells was measured at 485 nm excitation and 535 nm emission wavelengths with a Victor Wallace II plate reader. A standard curve was constructed for each experiment to normalize fluorescence to the number of cells.

CXCR4 [2] = target: T1, CXCR4 (Homo sapiens, UniProt P61073); test: CXCR4 cAMP receptor activation assay (CHO-K1 cells expressing CXCR4); type: cell-based; design: host or cells: CHO-K1; conditions: decrease in cAMP by Gαi activation, forskolin at EC80
Experimental: For the CXCR4 cAMP assay, CHO-K1 cells stably expressing the CXCR4 receptor (DiscoveRx, Fremont, Calif.) were seeded at a density of 10,000 cells/well in a 384-well plate and were allowed to recover overnight. A decrease in cAMP by CXCR4-induced Gαi activation was determined using the DiscoveRx HitHunter cAMP XS+assay following the manufacturer's protocol. […] Chemiluminescence was read with a PerkinElmer ViewLux instrument.

CXCR7 = CXCR7 (Homo sapiens, UniProt P25106); test: CXCR7 β-arrestin recruitment assay (PathHunter); type: cell-based
Experimental: (§1) PathHunter β-arrestin assays were performed following the instructions of the manufacturer (DiscoveRx). Briefly, PathHunter cell lines stably expressing both a β-arrestin-Enzyme Acceptor of β-galactosidase fusion and one of the chemokine receptors fused with the ProLink donor peptide of […] were employed. Upon CXCR stimulation, β-arrestin is recruited to the receptor for desensitization, bringing the two fragments (the Enzyme Acceptor and the ProLink) of β-galactosidase together. This generates an active β-galactosidase enzyme that can convert a substrate to a chemiluminescent product. Cells were seeded at a density of 5000 cells/well in a 384-well plate and were allowed to adhere overnight. […] After incubation, chemiluminescent signal was generated through addition of 12.5 μl (50% v/v) of PathHunter Detection reagent cocktail (DiscoveRx) followed by a 1-hour incubation at room temperature. Microplates were read with a PerkinElmer ViewLux instrument.

MMP-2 = target: T2, MMP-2 (Homo sapiens, UniProt P08253); test: MMP-2 cleavage of FRET-based N-terminal 8 amino acid peptides; type: biochemical; conditions: for amount of peptide cleaved by MMP-2: after 4 hours, n=4; for initial cleavage rate by MMP-2: calculated 60 minutes after addition of MMP-2, n=4
T2 construct: purchased R&D Systems
T2 sequence (P08253 110-660): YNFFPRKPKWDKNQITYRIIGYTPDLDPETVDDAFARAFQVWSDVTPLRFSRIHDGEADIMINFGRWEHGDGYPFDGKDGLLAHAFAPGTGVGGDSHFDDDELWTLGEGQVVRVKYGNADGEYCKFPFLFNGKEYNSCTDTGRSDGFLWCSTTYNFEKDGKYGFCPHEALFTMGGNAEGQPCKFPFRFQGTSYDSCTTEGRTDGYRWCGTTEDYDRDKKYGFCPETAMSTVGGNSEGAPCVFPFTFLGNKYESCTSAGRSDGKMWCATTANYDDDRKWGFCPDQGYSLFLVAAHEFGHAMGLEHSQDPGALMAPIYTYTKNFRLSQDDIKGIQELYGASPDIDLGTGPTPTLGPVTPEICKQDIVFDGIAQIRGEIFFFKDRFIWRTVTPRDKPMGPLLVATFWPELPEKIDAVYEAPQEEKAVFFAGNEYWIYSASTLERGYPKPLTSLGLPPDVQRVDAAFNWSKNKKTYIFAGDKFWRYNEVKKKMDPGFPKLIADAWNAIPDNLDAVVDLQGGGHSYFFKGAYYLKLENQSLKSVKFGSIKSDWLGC
Experimental: All peptides were synthesized with a fluorescent 7-methoxycoumarin-3-carboxylic acid (MCA) residue at the N-terminus and a quencher lysine-dinitrophenol (Dpn) residue at the C-terminus. […] Enzymatic cleavage of these peptides separated MCA from Dpn, resulting in an increased fluorescence. Peptides (10 μM) were then incubated with activated MMP-2 (Table 1), leukocyte elastase (Table 2), or cathepsin G (Table 3) (1.4 nM) in TNCB buffer (50 mM Tris, pH 7.5, with 10 mM calcium chloride, 150 mM sodium chloride, and 0.05% BRIJ 35) or phosphate-buffered saline (PBS) at 21° C. Fluorescence was measured at 340 nm excitation and 405 nm emission wavelengths at different time points with a Victor Wallace II plate reader.
Human recombinant MMP-2 (R&D Systems) was activated for 1 hour with 4-aminophenylmercuric acetate (APMA, 1 mM) at 37° C. 4 μg of Sumo-SSDF-1-RAD or Sumo-SSDF-1(S4V)-RAD was incubated for 1 hour to 48 hours at 21° C. with 50 ng of activated MMP-2 in TCNB buffer (50 mM Tris, pH 7.5, 10 mM CaCl2, 150 mM NaCl, 0.05% Brij-35). Sample loading buffer (Invitrogen) and 2-mercaptoethanol (0.5 M, final concentration) were added, and samples were boiled for 5 minutes and run on a 10% Bis-Tris gel. Proteins used for this experiment were obtained after cation-exchange chromatography, but were neither cleaved by Sumo-protease nor purified by RPC-HPLC.

CXCR4 [3] = target: T1, CXCR4; test: CXCR4 β-arrestin recruitment assay (PathHunter); type: cell-based
Experimental: as §1

[4] = test system: ischemic hindlimb blood flow; test: Hindlimb ischemia model, laser Doppler blood flow; type: in vivo, C57BL/6 mice; conditions: without nanofibers
Experimental: All animal protocols were approved by the institutional IACUC and performed in an AAALAC certified facility. Studies were performed blinded and randomized. Hindlimb ischemia was produced in male C57BL/6 mice (305 mice total), 8 to 12 weeks old (Jackson Laboratories and Charles River Laboratories). Mice were anesthetized with isoflurane (2-3% in 100% oxygen) and buprenorphin (0.05 mg/kg). Femoral artery was ligated and excised below the inguinal ligament and above the bifurcation of the popliteal artery. Protein and self-assembling peptide nanofibers were injected in the lower hindlimb after excision of the artery. Peptides were dissolved in isotonic sucrose (10%). Post-operative analgesia was provided with buprenorphin (0.05 mg/kg every 6 to 12 hours for 72 hours). The surgeon was blinded to the treatment groups in all studies performed. The first study included 35 animals total (5 animals per group), which received an intramuscular injection in the lower hindlimb with biotin-labeled nanofibers (biotin-RAD, 0.01% in 1% nanofibers hydrogel). Tissues were harvested at seven different time points and nanofibers were stained with Alexa fluor-labeled streptavidin. The second study included 40 animals (10 per group) with four groups: control without injection, nanofibers only, nanofibers+100 nM SSDF-1-RAD, and nanofibers+100 nM SSDF-1(S4V)-RAD. Laser Doppler blood flow measurements were performed with a Moor LDI2-IR (Moor Instruments) 2, 4, and 6 weeks after surgery. At each time point, five measurements (on average) per animal were made, and blood flow in the ischemic limb was normalized to blood flow in normal limb. The third study included 50 animals with four different dosages of SSDF-1(S4V)-RAD; all groups contained nanofibers. All laser Doppler measurements and histology quantifications were made by an operator blinded to the treatment groups.

[5] = fourth study, 1 mg/kg daily IM for first 7 days
[6] = separate confirming study, same doses and schedule

T1 sequence (P61073 whole entry): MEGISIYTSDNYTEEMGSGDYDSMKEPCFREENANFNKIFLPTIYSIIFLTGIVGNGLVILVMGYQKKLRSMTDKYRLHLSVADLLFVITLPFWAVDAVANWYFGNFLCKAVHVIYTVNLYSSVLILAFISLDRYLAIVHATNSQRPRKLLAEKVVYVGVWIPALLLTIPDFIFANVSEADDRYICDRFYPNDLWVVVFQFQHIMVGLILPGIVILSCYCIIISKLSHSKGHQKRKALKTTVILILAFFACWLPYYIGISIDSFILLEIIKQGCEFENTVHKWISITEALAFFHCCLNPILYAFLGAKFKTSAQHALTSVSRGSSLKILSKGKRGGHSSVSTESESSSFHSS
Chain of CXCR7 (P25106 whole entry, the tested form may be a part): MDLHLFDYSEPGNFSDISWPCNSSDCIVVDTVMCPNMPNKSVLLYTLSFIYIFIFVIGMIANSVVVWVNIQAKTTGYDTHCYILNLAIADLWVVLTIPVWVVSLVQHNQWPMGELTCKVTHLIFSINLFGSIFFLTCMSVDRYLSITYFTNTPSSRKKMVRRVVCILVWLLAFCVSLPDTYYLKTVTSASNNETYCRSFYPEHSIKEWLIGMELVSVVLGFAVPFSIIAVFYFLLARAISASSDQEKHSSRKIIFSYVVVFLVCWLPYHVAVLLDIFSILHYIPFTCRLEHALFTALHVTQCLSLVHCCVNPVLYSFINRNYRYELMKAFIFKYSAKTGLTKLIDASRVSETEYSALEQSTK

| Jurkat Chemotaxis EC50 [1] | Substance | activity in Jurkat cell migration assay [1] | EC50 [1] | EC50 (CXCR7) [nM] | other results |
| --- | --- | --- | --- | --- | --- |
| Inactive | SSDF-1 (L5K): SDF-1 with Leu→Lys at position 5 and N-terminal serine | inactive |  |  |  |
| Inactive | SSDF-1 (L5H): SDF-1 with Leu→His at position 5 and N-terminal serine | inactive |  |  |  |
| Inactive | SSDF-1 (V3G): SDF-1 with Val→Gly at position 3 and N-terminal serine | inactive |  |  |  |
| Inactive | SSDF-1 (V3D): SDF-1 with Val→Asp at position 3 and N-terminal serine | inactive |  |  |  |
| Inactive | SSDF-1 (L5W): SDF-1 with Leu→Trp at position 5 and N-terminal serine | inactive |  |  |  |
| Inactive | SSDF-1 (V3P): SDF-1 with Val→Pro at position 3 and N-terminal serine | inactive |  |  |  |
| Inactive | SSDF-1 (L5E): SDF-1 with Leu→Glu at position 5 and N-terminal serine | inactive |  |  |  |

More lines, now with the values behind:

| Substance | Jurkat Chemotaxis EC50 [1] | activity in Jurkat cell migration assay [1] | EC50 [1] | EC50 (CXCR7) [nM] | other results |
| --- | --- | --- | --- | --- | --- |
| SSDF-1 (L5D): SDF-1 with Leu→Asp at position 5 and N-terminal serine | Inactive | inactive |  |  |  |
| SSDF-1 (L5T): SDF(L5T) (SEQ ID NO:56) with N-terminal serine |  |  | 20 nM | 8.7 | EC50 (CXCR4 [2]): 3.6 nM |
| SSDF-1 (L5V): SDF(L5V) (SEQ ID NO:60) with N-terminal serine |  |  | 36 nM | 21 | EC50 (CXCR4 [2]): 33 nM |
| SSDF-1 (−68K): SDF-1 lacking the C-terminal lysine, with N-terminal serine |  |  | 2.2 nM |  | EC50 ([1]; listed as SSDF-1(−68K)): 1.3 nM; activity of C-terminal variant relative to SDF-1 and SSDF-1 [1]: unchanged |
| SSDF-1 (S6C): SDF(S6C) (SEQ ID NO:61) with N-terminal serine |  |  | 23 nM | 29 | EC50 (CXCR4 [2]): 12 nM |
| SDF-1(S4V)-N-terminal peptide: First 8 amino acids of SDF-1(S4V) (SEQ ID NO:91) with MCA at the N-terminus and quencher Dpn at the C-terminus ({MCA}-KPVVLSYR-Dpn) |  |  |  |  | amount of peptide cleaved by MMP-2 (MMP-2): 1 ± 3 pmol; initial cleavage rate by MMP-2 (MMP-2): 0.1±0.1×10^−10 M s^−1 |
| SSDF-1 (V3C): SDF(V3C) (SEQ ID NO:55) with N-terminal serine |  |  | 15 nM | 14 | EC50 (CXCR4 [2]): 0.6 nM |
| SSDF-1(S4V)γ: SDF-1γ version of SSDF-1(S4V) |  |  | 47 nM |  |  |
| SSDF-1 (S4V): SDF-1(S4V) (SEQ ID NO:65) with a serine residue added at the N-terminus |  | highest potency | 5.4 nM | 37 | EC50 (CXCR4 [3]): 28 nM; average blood flow (ratio of ischemic to control limb) ([4]; four weeks, 4 administrations (d0, d1, d3, d5) of 1 mg/kg): 27.1±2.5%; blood flow differences between groups [4, 5]: No significant differences in blood flow; blood flow differences between groups [4, 6]: did not show significant differences between groups; blood flow differences between groups ([4]; third study, 0.1, 0.3, 1 and 3 mg/kg at d0, d1, d3, d5): No significant differences in blood flow; EC50 (CXCR4 [2]): 20 nM |
| SSDF-1(S4V)-RADI: Fusion protein of SSDF-1(S4V) and RAD16-I sequence, six glycine linker (SEQ ID NO:75) |  |  | 18 nM |  |  |
| SSDF-1(S4V)(−68K): SSDF-1(S4V) lacking the C-terminal lysine |  |  | 10 nM |  |  |
| SSDF-1 (+69S): SSDF-1 with an amino acid residue (serine) added to the C-terminal end |  |  | 12 nM |  | EC50 ([1]; listed as SSDF-1(+69S)): 2 nM; activity of C-terminal variant relative to SDF-1 and SSDF-1 [1]: retains significant activity |
| SSDF-1: SDF-1 with a serine residue added at the N-terminus |  |  | 1.6 nM |  | blood flow differences between groups [4, 5]: No significant differences in blood flow; blood flow differences between groups [4, 6]: did not show significant differences between groups |
| SSDF-1 (L5P): SDF-1 with Leu→Pro at position 5 (SEQ ID NO:66) and N-terminal serine |  |  | 120 nM | 225 | CXCR4 (cAMP) EC50 (CXCR4 [2]): Inactive |
| SDF-1: Unmutated SDF-1α, 68 amino acids, SEQ ID NO:52 [reference compound] |  |  | 1.5 nM and 1.8 nM |  |  |
| KPVSLSYR ({MCA}-KPVSLSYR-Dpn; listed as Homo sapiens) [SDF-1-N-terminal peptide, reference compound] |  |  |  |  | amount of peptide cleaved by MMP-2 (MMP-2): 205 ± 18 pmol; initial cleavage rate by MMP-2 (MMP-2): 2.0±0.1×10^−10 M s^−1 |
| SSDF-1 (V3H): SDF(V3H) (SEQ ID NO:54) with N-terminal serine |  |  | 6.7 nM | 92 | EC50 (CXCR4 [2]): 1 nM |
| SSDF-1 (S6G): SDF(S6G) (SEQ ID NO:62) with N-terminal serine |  |  | 11 nM | 25 | EC50 (CXCR4 [2]): 8.5 nM |
